These compounds were tested against T1, RsASML (Ralstonia pseudosolanacearum, UniProt Q8XPM9) (assay: biochemical).
T1 construct: gene RSp1609
T1 sequence (Q8XPM9 30-476 limits assumed): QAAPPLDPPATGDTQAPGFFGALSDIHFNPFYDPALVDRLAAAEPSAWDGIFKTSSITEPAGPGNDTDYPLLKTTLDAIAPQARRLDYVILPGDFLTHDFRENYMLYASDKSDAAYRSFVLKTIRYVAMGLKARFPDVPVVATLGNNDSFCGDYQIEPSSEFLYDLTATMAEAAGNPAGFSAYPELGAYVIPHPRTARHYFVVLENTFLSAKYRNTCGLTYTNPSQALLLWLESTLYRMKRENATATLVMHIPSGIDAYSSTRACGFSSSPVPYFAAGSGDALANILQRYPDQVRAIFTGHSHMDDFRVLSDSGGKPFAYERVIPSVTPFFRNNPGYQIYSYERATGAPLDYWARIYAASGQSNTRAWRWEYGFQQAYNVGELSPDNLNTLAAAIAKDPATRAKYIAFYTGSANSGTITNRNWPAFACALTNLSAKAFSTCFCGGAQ

For `Nc1ncnc2c1ncn2[C@@H]1O[C@H](COP(=O)(O)OP(=O)(O)O)[C@@H](O)[C@H]1O` [ADP], which IC50 is on record?
The IC50 was 0.0705 µM.

With `Nc1ncnc2c1ncn2[C@@H]1O[C@H](COP(=O)(O)O)[C@@H](O)[C@H]1O` [AMP] as the compound, how does the IC50 read?
The IC50 was 0.075 µM.

For `Nc1ncnc2c1ncn2[C@@H]1O[C@H](COP(=O)(O)OP(=O)(O)OP(=O)(O)O)[C@@H](O)[C@H]1O` [ATP], which IC50 is on record?
The IC50 was 0.0586 µM.

For `Nc1ncnc2c1ncn2[C@@H]1O[C@H](CO)[C@@H](O)[C@H]1O` [Adenosine], which IC50 is on record?
The IC50 was 243 µM.

With `Nc1ccn([C@@H]2O[C@H](COP(=O)(O)OP(=O)(O)OP(=O)(O)O)[C@@H](O)[C@H]2O)c(=O)n1` [CTP] as the compound, how does the IC50 read?
Its IC50 is 1500 µM.

`Nc1nc2c(ncn2[C@@H]2O[C@H](COP(=O)(O)OP(=O)(O)OP(=O)(O)O)[C@@H](O)[C@H]2O)c(=O)[nH]1` [GTP] was tested. Which IC50 did it give?
Its IC50 is 44.2 µM.

For `O=P(O)(O)OC[C@H](O)CO` [L-α-glycerolphosphate], which IC50 is on record?
The IC50 was 746 µM.

For `C[N+](C)(C)CCOP(=O)([O-])OC[C@H](O)CO` [L-α-glycerolphosphocholine], which IC50 is on record?
The IC50 was 64.6 µM.

For `NC(=O)c1ccc[n+]([C@@H]2O[C@H](COP(=O)(O)OP(=O)(O)OC[C@H]3O[C@@H](n4cnc5c(N)ncnc54)[C@H](O)[C@@H]3O)[C@@H](O)[C@H]2O)c1` [NAD^+], which IC50 is on record?
Its IC50 is 0.0663 µM.

`O=P(O)(O)O` [Phosphate] was tested. Which IC50 did it give?
The IC50 was 265 µM.

How did the IC50 turn out when `C[N+](C)(C)CCOP(=O)([O-])O` [Phosphocholine] was run?
Its IC50 is 4430 µM.

`Cc1cn([C@H]2C[C@H](O)[C@@H](COP(=O)(O)O)O2)c(=O)[nH]c1=O` [TMP] was tested. Which IC50 did it give?
Its IC50 is 35.9 µM.

With `Cc1cn([C@H]2C[C@H](O)[C@@H](COP(=O)(O)OP(=O)(O)OP(=O)(O)O)O2)c(=O)[nH]c1=O` [TTP] as the compound, how does the IC50 read?
Its IC50 is 201 µM.

For `O=c1ccn([C@@H]2O[C@H](COP(=O)(O)OP(=O)(O)OP(=O)(O)O)[C@@H](O)[C@H]2O)c(=O)[nH]1` [UTP], which IC50 is on record?
The IC50 was 1360 µM.

Which IC50 does the source give for `NC(=O)C1=CN([C@@H]2O[C@H](COP(=O)(O)OP(=O)(O)OC[C@H]3O[C@@H](n4cnc5c(N)ncnc54)[C@H](OP(=O)(O)O)[C@@H]3O)[C@@H](O)[C@H]2O)C=CC1` [β-NADPH] here?
The IC50 was 52.1 µM.
